Measurements taken from ChEMBL document CHEMBL1201862, “PubChem BioAssay data set” (2004).
Calls of active or inactive are those of the source.

Key:
Prothrombin = Prothrombin (Bos taurus, UniProt P00735); test: thrombin protease inhibitors – biochemical, fluorescence polarization, uHTS hits, dose response (AID 602369); type: functional
[1] = biological target: T1, Zinc finger protein mex-5 (Caenorhabditis elegans, UniProt Q9XUB2); test: potency of MEX-5 RNA-binding blockers – biochemical, C. elegans, fluorescence polarization, dose response (AID 1960)
T1 sequence (Q9XUB2 whole entry): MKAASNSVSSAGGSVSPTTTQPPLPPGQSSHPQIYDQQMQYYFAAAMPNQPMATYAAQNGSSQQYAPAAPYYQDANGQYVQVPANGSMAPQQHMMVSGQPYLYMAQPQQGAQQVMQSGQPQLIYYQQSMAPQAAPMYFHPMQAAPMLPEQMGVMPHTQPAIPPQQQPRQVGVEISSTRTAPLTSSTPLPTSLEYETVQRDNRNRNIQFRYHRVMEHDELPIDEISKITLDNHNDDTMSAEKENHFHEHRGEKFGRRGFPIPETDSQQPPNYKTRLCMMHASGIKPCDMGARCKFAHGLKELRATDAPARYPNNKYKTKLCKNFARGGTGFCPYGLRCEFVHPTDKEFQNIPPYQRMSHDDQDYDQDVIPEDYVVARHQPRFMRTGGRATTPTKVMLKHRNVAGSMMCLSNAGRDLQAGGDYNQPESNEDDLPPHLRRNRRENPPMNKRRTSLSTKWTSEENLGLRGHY

Streptococcus = test: GAS UMAA2166 growth inhibition – luminescence, BacTiterGlo, counter-screen for streptokinase expression inhibitor project, dose response (AID 1915); type: functional, organism-based;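 further: potency for reduction of bacterial viability or growth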
[2] = system: Streptococcus sp. 'group A'; test: Streptococcus pyogenes SK(-)GAS viability under kanamycin – luminescence, BacTiterGlo, confirmation, counter-screen for streptokinase expression inhibitor project, dose response (AID 1900); type: functional, organism-based
[3] = biological target: 72 kDa type IV collagenase (Homo sapiens, UniProt P08253); test: Dose Response validation of uHTS RPN11 inhibitor hits using a MMP-2 Fluorescence assay.; type: functional
[4] = biological target: T2, RNA-binding protein pos-1 (Caenorhabditis elegans, UniProt G5EF15); test: disruptors of C. elegans POS-1 RNA interaction – biochemical, fluorescence polarization, dose response (AID 1964);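 further: purified POS-1 fused to maltose binding protein made in E. coli; potency of compounds blocking POS-1 binding to fluorescent RNA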
T2 sequence (G5EF15 whole entry): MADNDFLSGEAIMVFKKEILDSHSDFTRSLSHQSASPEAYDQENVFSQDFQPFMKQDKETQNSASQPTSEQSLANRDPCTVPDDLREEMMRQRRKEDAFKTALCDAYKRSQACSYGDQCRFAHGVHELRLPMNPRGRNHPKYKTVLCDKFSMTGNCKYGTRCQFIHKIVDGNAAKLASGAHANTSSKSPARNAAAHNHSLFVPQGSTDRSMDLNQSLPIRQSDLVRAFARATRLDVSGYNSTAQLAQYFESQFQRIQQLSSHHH

Protein RecA = biological target: T3, Protein RecA (Mycobacterium tuberculosis, UniProt P9WHJ3); test: Fluorescence Cell-Free Homogeneous Dose Retest to Identify Inhibitors of RecA-Intein Splicing Activity. [Related pubchem assays (depositor defined):AID2097, AID2223, AID489010, AID492950]; type: functional
T3 sequence (P9WHJ3 whole entry): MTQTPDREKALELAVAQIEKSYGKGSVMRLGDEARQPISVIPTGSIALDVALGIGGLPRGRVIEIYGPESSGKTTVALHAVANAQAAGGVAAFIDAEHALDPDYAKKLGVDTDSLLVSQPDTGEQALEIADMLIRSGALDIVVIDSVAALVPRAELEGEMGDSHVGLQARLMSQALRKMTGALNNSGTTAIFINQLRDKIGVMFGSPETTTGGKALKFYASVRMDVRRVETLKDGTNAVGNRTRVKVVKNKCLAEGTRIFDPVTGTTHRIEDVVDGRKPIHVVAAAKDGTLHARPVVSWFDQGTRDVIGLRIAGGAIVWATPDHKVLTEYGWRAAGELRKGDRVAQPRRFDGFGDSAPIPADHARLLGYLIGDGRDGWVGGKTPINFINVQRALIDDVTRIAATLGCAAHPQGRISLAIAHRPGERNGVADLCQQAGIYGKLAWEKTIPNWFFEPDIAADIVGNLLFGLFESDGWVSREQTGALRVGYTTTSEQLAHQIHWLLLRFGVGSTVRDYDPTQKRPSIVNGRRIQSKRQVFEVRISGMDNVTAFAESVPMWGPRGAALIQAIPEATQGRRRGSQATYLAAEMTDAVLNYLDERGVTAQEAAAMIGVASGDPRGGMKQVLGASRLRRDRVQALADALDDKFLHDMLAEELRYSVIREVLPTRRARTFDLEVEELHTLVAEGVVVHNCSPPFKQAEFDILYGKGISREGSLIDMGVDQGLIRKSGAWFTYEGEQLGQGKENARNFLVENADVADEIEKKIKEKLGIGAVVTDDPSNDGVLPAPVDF

Streptokinase A = biological target: T4, Streptokinase A (Streptococcus pyogenes serotype M1, UniProt P10520); test: viability-normalized secreted streptokinase activity reduction – plasminogen activation absorbance, OD405, dose response (AID 1914); type: functional, Streptococcus pyogenes M1 GAS;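 further: secreted streptokinase activity via plasminogen activation per viability signal from cell pellet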
T4 sequence (P10520 whole entry): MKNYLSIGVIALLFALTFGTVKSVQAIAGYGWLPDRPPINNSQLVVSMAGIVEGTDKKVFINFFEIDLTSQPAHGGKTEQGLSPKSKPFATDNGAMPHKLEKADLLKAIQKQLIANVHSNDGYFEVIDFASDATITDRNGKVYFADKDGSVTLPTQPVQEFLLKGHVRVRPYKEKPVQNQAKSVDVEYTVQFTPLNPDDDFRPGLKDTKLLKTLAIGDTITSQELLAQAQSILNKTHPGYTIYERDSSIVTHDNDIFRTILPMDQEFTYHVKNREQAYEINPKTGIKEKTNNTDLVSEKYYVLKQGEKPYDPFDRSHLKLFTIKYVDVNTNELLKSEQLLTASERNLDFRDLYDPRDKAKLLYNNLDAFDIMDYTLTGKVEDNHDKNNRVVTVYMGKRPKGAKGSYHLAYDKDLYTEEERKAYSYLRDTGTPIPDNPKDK

[5] = biological target: 26S proteasome non-ATPase regulatory subunit 14 (Homo sapiens, UniProt O00487); test: inhibition of proteasome subunit RPN11 – biochemical, fluorescence polarization, uHTS hits, confirmation (AID 602368); type: functional
[6] = biological target: T5, Replicative DNA helicase DnaB (Mycobacterium tuberculosis, UniProt P9WMR3); test: DnaB intein splicing inhibitors, dose response, biochemical, cell-free fluorescence (AID 449749); type: functional
T5 sequence (P9WMR3 whole entry): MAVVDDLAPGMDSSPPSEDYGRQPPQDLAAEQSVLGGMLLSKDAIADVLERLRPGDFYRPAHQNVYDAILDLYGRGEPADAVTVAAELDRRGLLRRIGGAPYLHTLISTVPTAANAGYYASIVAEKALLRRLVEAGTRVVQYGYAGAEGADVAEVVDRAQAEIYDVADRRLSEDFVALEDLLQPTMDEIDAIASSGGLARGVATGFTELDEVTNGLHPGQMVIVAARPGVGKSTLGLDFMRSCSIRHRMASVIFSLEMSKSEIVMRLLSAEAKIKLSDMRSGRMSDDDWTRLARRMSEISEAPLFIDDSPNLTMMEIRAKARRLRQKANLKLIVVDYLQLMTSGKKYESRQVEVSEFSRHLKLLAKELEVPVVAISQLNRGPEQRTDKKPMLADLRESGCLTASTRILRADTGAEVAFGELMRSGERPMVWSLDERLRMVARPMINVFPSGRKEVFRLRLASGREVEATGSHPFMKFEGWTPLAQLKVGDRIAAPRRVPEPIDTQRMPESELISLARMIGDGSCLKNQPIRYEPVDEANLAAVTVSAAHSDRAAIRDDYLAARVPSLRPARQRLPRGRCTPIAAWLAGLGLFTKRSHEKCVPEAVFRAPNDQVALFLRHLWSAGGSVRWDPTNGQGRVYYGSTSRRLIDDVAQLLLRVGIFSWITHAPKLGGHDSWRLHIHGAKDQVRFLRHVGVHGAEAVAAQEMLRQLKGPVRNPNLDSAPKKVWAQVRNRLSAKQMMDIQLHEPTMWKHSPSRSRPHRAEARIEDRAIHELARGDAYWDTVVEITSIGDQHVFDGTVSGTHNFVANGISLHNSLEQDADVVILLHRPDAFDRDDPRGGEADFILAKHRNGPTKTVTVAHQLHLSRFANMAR

Steroidogenic factor 1 = Steroidogenic factor 1 (Homo sapiens, UniProt Q13285); test: Counterscreen for inverse agonists of the liver receptor homolog-1 (LRH-1; NR5A2): Luminescence-based cell-based high throughput dose response assay to identify inverse agonists of the Steroidogenic Factor 1 Nuclear Receptor (SF1; NR5A1).; type: functional
[7] = biological target: Nuclear receptor subfamily 5 group A member 2 (Homo sapiens, UniProt O00482); type: functional, cell-based;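 further: HEK293T cells transfected with LRH-1 and a StAR promoter luciferase reporter; potency for inhibitors that lower LRH-1 driven reporter light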
[8] = nonselective StAR promoter luciferase inhibitors – cell-based, luminescence, luciferase reporter, counter-screen for LRH-1 inverse agonist project, dose response (AID 651969); type: functional
[9] = biological target: T6, Probable nicotinate-nucleotide adenylyltransferase (Staphylococcus aureus (strain N315), UniProt P65502); type: functional, Staphylococcus aureus subsp. aureus N315;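 on IC50 Mean: confirmatory dose-response retesting of NadD inhibitor hits first found in an ultra-high-throughput screen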
[10] = biological target: T6, Probable nicotinate-nucleotide adenylyltransferase; type: functional, Staphylococcus aureus subsp. aureus N315; settings: read-out: IC50_Mean
[11] = biological target: Adenosylmethionine-8-amino-7-oxononanoate aminotransferase (Mycobacterium tuberculosis, UniProt P9WQ81); test: Mycobacterium tuberculosis BioA enzyme inhibitor Measured in Biochemical System Using Plate Reader - 2163-02_Inhibitor_Dose_CherryPick_Activity.; type: functional, Mycobacterium tuberculosis UT205
[12] = biological target: T7, Small ubiquitin-related modifier 1 (Homo sapiens, UniProt P63165); test: SUMO1 protein-protein binding blockers, potency – biochemical, FRET, dose response (AID 624383); type: functional; settings: read-out: IC50_Mean
[13] = biological target: T7, Small ubiquitin-related modifier 1; test: SUMO1 protein interaction blockers, potency – biochemical, fluorescence polarization, uHTS hits, dose response (AID 624382); type: functional; settings: read-out: IC50_Mean
[14] = biological target: Eukaryotic translation initiation factor 4E (Mus musculus, UniProt P63073); test: blockers of eIF4G binding by eIF4E – biochemical, TR-FRET, dose response (AID 855); type: functional;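 further: potency for disrupting eIF4E binding to eIF4GI seen as loss of FRET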
[15] = biological target: Tyrosine-protein phosphatase non-receptor type 5 (Homo sapiens, UniProt P54829); test: PTPN5 enzyme inhibition – biochemical, fluorescence intensity, uHTS hits, confirmation (AID 602372); type: functional; settings: read-out: IC50_Mean
[16] = biological target: T8, Calpain-2 catalytic subunit (Sus scrofa, UniProt P43367); test: m-calpain protease blockers, concentration series – biochemical, fluorogenic peptide substrate, dose response (AID 1420); type: functional
T8 sequence (P43367 whole entry): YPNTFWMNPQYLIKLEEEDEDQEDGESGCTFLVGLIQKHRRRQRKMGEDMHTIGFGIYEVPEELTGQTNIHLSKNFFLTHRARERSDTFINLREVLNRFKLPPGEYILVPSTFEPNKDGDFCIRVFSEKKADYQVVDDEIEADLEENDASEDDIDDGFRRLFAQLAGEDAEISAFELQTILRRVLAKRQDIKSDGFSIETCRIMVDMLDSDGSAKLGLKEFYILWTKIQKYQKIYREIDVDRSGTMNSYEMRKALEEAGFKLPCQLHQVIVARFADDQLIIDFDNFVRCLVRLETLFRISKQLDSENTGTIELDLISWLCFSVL

[17] = biological target: Tyrosine-protein phosphatase non-receptor type 11 (Homo sapiens, UniProt Q06124); test: PTPN11 enzyme inhibitors – biochemical, selectivity assay for STEP inhibitor project, dose response (AID 602367); type: functional; settings: read-out: IC50_Mean
[18] = biological target: Dual specificity protein phosphatase 3 (Homo sapiens, UniProt P51452); test: VHR phosphatase inhibition, dose response, selectivity assay for STEP inhibitor project, biochemical (AID 602374); type: functional; settings: read-out: IC50_Mean
Dual specificity protein phosphatase 3, sequence (P51452 whole entry): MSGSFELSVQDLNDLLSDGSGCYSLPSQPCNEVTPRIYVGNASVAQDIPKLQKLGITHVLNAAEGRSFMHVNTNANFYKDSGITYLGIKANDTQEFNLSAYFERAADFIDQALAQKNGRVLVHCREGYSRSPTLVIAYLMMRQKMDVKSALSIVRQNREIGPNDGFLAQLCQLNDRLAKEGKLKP

T6 sequence (P65502 whole entry): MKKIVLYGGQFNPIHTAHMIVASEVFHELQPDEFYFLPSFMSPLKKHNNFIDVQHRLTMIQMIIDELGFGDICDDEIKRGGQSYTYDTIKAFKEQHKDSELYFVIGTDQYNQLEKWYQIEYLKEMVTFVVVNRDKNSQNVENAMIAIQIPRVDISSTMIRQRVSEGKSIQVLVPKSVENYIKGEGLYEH
Adenosylmethionine-8-amino-7-oxononanoate aminotransferase, sequence (P9WQ81 whole entry): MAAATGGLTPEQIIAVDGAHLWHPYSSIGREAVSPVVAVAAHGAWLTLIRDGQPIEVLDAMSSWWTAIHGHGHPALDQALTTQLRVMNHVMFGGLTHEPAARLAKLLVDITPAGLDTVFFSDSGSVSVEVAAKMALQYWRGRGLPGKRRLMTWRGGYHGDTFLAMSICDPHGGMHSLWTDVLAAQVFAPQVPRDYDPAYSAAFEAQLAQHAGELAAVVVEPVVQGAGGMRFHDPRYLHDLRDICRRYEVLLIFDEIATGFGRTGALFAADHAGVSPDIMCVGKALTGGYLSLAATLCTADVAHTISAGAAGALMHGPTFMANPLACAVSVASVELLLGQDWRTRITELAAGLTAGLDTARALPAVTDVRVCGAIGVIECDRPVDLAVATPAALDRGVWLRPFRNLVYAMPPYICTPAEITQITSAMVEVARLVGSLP
Nuclear receptor subfamily 5 group A member 2, sequence (O00482 whole entry): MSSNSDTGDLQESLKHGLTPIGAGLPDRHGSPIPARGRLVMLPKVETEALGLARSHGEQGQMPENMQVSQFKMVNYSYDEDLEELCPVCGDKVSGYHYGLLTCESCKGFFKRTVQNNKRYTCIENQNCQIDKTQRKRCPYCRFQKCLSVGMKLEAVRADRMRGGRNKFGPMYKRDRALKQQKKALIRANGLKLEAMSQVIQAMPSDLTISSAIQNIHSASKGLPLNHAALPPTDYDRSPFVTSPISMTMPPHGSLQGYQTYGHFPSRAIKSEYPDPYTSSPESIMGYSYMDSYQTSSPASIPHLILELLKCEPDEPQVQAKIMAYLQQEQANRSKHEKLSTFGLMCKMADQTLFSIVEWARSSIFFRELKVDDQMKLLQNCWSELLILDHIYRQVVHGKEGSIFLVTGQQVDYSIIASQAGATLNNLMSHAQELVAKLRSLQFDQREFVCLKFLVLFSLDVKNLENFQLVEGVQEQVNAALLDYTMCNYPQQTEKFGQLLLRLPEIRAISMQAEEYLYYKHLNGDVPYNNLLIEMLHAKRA
Steroidogenic factor 1, sequence (Q13285 whole entry): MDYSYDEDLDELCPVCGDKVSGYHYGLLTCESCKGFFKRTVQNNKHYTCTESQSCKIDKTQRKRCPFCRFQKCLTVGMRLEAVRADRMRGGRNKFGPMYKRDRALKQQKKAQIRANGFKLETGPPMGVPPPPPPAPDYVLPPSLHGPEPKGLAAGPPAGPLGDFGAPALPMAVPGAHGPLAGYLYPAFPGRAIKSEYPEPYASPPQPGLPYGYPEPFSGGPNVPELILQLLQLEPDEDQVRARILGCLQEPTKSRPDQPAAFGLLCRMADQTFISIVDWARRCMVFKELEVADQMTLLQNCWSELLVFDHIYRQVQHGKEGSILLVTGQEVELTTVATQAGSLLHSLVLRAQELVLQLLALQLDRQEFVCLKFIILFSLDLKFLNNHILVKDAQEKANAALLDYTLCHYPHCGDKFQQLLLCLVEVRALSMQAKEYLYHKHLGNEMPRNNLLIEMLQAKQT
T7 sequence (P63165 whole entry): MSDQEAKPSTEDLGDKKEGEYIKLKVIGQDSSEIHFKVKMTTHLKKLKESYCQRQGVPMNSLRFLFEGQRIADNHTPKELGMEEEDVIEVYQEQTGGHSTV
26S proteasome non-ATPase regulatory subunit 14, sequence (O00487 whole entry): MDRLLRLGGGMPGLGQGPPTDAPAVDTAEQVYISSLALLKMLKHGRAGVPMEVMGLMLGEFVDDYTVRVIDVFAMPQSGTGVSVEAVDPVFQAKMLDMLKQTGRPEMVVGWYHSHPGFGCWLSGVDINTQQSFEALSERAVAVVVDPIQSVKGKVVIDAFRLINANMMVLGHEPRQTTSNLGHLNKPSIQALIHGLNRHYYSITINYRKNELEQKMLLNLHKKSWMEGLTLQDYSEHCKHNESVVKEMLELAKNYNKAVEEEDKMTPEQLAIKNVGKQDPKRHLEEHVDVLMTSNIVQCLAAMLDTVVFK
Eukaryotic translation initiation factor 4E, sequence (P63073 whole entry): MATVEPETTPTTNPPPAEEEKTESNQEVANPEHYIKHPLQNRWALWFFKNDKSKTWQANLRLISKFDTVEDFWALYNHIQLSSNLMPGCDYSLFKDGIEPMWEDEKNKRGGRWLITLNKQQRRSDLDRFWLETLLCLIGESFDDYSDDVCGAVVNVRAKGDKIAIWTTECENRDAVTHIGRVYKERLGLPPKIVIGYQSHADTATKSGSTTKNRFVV
Tyrosine-protein phosphatase non-receptor type 11, sequence (Q06124 whole entry): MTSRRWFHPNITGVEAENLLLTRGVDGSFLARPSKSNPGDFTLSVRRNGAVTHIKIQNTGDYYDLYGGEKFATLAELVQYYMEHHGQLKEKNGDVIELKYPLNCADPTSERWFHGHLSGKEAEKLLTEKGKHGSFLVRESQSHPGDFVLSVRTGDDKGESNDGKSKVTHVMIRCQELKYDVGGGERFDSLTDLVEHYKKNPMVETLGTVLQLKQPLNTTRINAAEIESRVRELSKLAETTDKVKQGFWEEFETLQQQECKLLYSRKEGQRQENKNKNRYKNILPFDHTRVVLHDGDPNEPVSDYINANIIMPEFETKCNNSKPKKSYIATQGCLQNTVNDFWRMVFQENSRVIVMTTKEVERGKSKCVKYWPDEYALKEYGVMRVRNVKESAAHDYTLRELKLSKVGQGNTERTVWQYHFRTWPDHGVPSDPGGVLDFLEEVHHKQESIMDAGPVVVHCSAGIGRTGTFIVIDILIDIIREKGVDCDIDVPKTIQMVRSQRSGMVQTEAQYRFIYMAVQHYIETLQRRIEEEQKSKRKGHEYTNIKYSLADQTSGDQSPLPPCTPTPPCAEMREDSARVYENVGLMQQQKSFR
72 kDa type IV collagenase, sequence (P08253 whole entry, the tested form may be a part): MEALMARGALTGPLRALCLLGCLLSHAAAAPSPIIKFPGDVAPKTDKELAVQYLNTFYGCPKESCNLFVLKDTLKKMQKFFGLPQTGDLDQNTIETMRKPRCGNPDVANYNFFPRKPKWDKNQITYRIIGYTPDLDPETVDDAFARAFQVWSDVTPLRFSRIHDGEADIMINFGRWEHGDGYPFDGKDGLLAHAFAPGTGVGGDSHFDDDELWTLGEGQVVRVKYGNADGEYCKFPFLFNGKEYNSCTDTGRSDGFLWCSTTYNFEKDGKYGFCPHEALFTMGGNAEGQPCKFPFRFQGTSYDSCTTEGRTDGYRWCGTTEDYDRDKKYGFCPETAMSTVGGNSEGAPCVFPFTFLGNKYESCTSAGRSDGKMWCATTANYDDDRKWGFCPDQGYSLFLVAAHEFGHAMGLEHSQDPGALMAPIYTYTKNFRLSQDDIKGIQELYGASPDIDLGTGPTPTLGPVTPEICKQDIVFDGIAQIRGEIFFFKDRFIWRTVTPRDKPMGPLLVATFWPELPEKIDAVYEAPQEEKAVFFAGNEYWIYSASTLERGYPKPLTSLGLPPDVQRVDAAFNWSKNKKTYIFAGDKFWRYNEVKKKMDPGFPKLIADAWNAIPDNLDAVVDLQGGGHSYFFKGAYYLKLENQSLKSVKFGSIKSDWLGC
Tyrosine-protein phosphatase non-receptor type 5, sequence (P54829 whole entry): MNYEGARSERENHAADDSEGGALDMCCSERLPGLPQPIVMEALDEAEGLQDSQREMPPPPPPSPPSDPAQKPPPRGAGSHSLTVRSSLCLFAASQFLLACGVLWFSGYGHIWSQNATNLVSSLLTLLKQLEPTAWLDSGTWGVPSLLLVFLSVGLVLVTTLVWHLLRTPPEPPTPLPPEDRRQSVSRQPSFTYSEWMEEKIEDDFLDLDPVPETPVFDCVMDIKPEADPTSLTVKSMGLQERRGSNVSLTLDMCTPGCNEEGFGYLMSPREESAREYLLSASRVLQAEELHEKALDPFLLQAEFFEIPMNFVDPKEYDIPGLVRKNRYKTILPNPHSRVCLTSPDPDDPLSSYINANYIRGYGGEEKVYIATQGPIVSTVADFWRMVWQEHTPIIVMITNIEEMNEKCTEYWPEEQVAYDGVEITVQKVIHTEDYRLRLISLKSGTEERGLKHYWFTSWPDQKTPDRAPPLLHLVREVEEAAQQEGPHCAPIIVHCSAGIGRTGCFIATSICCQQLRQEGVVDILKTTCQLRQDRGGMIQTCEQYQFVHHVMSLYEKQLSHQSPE

O=C(N/N=C/c1cc(Cl)cc([N+](=O)[O-])c1O)c1ccccc1NS(=O)(=O)c1cccs1
IC50 (Prothrombin): 85.5 µM (active)
EC50 [1]: 1.56 µM (inconclusive)
EC50 (Streptococcus): 18.9 µM (active)
EC50 [2]: 4.31 µM (active)
IC50 [3]: > 100 µM (inactive)
EC50 [4]: 282 µM (active)
EC50 (Protein RecA): 67.2 µM (active)
EC50 (Streptokinase A): > 150 µM (not active)
IC50 [5]: 10.4 µM (active)
AC50 [6]: 15.9 µM (active)

CC(=O)c1ccc(NC(=O)C(C)ONC(=N)c2ccccc2)cc1 (centres undefined)
IC50 (Steroidogenic factor 1): 6.11 µM (active)
IC50 [7]: 23.8 µM (inactive)
IC50 [8]: 35.9 µM (inactive)

Cc1cccc(C)c1Nc1nnc(SC/C(O)=C(\C#N)c2nc3ccccc3[nH]2)s1
IC50 [9]: 9.49 µM (active)
IC50 [10]: 25.2 µM (active)

Cc1ccc(C)c(N2CCN(S(=O)(=O)c3ccc4nc(O)c(O)nc4c3)CC2)c1
IC50 [9]: 5.39 µM (active)
IC50 [10]: 25.9 µM (active)

COc1ccccc1NC(=O)CN1CCN(CC(=O)Nc2ccc(S(N)(=O)=O)cc2)CC1
IC50 (Steroidogenic factor 1): 6.64 µM (active)
IC50 [7]: 25.9 µM (inactive)
IC50 [8]: 35.9 µM (inactive)

O=C(Nc1cccc(F)c1)C1CCCN(c2cnccn2)C1 (centres undefined)
AC50 [11]: 5.41 µM (active)

O=C(CSc1nc(-c2ccc(F)cc2)nc2c1Cc1ccccc1O2)Nc1cccc(C(=O)O)c1
IC50 [12]: 4.27 µM (active)
IC50 [13]: > 66.6 µM (inactive)
IC50 [14]: 50 µM (inactive)
IC50 [15]: 2.26 µM (active)
IC50 [16]: > 50 µM (not active)
IC50 [17]: 0.443 µM (active)
IC50 [18]: 0.353 µM (active)

O=C(C[C@@H]1C[C@H]2c3cc(NC(=O)c4cccnc4)ccc3O[C@H]2[C@@H](CO)O1)NCc1cc(F)ccc1F
AC50 [11]: 12.6 µM (active)
